Consider 28 compounds from US20240279237A1, “FUSED BICYCLIC HETEROARYL COMPOUNDS USEFUL AS NLRP3 INHIBITORS” (Hoffmann-La Roche Inc., priority 2021, published 2024).

Where a name gives a salt, the structure may show the parent alone.

The target in the test is T1, NLRP3 (Homo sapiens, UniProt Q96P20).
T1 construct: Seed THP-1 cells (25,000 cells/well) containing 1.0 μg/ml LPS in 40 μl of RPMI medium; host or cells: THP-1 cells
T1 sequence (Q96P20 whole entry): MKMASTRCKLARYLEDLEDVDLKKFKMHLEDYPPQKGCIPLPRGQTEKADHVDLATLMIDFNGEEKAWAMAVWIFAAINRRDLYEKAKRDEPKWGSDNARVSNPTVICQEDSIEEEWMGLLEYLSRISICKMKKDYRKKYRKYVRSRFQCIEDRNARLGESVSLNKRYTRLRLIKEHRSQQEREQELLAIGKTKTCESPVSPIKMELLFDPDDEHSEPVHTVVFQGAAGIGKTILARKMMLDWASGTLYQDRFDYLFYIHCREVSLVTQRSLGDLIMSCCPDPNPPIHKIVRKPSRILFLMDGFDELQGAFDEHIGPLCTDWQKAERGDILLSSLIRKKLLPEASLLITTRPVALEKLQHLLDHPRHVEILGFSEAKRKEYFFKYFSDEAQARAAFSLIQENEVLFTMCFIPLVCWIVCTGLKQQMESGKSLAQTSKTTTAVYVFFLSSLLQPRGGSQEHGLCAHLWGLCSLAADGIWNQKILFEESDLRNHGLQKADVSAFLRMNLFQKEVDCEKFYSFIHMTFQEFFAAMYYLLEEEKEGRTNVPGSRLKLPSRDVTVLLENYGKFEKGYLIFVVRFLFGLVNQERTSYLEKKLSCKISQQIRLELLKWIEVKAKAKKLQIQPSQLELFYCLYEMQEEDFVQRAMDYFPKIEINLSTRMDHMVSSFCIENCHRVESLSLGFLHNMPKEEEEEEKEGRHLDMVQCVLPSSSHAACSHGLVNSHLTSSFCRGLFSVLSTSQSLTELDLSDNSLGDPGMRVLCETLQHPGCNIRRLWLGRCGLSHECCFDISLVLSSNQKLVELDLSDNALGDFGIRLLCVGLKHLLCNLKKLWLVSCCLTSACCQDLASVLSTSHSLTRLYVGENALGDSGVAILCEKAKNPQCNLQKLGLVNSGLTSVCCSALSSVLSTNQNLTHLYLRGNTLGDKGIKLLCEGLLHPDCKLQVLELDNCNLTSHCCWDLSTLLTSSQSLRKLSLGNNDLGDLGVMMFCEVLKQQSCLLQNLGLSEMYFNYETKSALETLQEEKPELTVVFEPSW
The experiment in a line: THP-1 Cells Pyroptosis Assay. In kind it is cell-based. Conditions: THP-1 cells with 1.0 μg/ml LPS; compound 3 hours; nigericin 5 μM 1 hr; resazurin readout. On the procedure: The cells were routinely passaged and grown to confluency (˜10^6 cells/ml). On the day of the experiment, THP-1 cells were harvested and resuspended into RPMI medium (without FBS). The cells were then counted and viability (>90%) checked by Trypan blue (Sigma #T8154). […] To this diluted cell solution was added LPS (Sigma #L4524) to give a 1 μg/ml Final Assay Concentration (FAC). 40 μl of the final preparation was aliquoted into each well of a 96-well plate. The plate thus prepared was used for compound screening.
The following method step-by-step assay was followed for compound screening. • 1. […] Incubate for 3 hours at 37° C., 5% CO2 • 4. Add 5 μl nigericin (Sigma #N7143) (FAC 5 μM) to all wells • 5. Incubate for 1 hr at 37° C., 5% CO2 • 6. At the end of the incubation period, spin plates at 300×g for 3 mins and remove supernatant • 7. Then add 50 μl of resazurin (Sigma #R7017) (FAC 100 μM resazurin in RPMI medium without FBS) and incubate plates for a further 1-2 hours at 37° C. and 5% CO2 • 8.
For orientation: The colour change of resazurin is a common sign of viable cells or microbes.
With `Cc1cc(Cl)cc(O)c1-c1ccc2oc(N[C@@H]3CCCN(CC(C)O)C3)nc2n1` (stereo partly drawn) [Example 97, 5-Chloro-3-methyl-2-[2-[[(3R)-1-(2-hydroxypropyl)-3-piperidyl]amino]oxazolo[4,5-b]pyridin-5-yl]phenol], it took 93.9 nM to reach half-maximal inhibition (IC50). This counts as double-digit nanomolar. Regarding `Cc1cc(C(F)(F)F)cc(O)c1-c1ccc2oc(N3CCO[C@H]4CNC[C@@H]43)nc2n1` [Example 64B, 2-[2-[(4aS,7aS)-3,4a,5,6,7,7a-Hexahydro-2H-pyrrolo[3,4-b][1,4]oxazin-4-yl]oxazolo[4,5-b]pyridin-5-yl]-3-methyl-5-(trifluoromethyl)phenol], the IC50 (usually the point on the concentration scale where inhibition reaches its midpoint) was 13.9 nM. `CCN1CCC[C@@H](Nc2nc3nc(-c4c(C)cc(C)cc4O)ccc3o2)C1` [Example 123, 2-[2-[[(3R)-1-Ethyl-3-piperidyl]amino]oxazolo[4,5-b]pyridin-5-yl]-3,5-dimethyl-phenol]: half-maximal inhibition (IC50) required 0.7 nM. On to `Cc1cc(C(F)(F)F)cc(O)c1-c1ccc2oc(N3CCCC(O)C3)nc2n1` (racemic) [Example 3, (rac)-1-[5-[2-Hydroxy-6-methyl-4-(trifluoromethyl)phenyl]oxazolo[4,5-b]pyridin-2-yl]piperidin-3-ol], for which the IC50 was 75.4 nM. With `CCN1CCC2CCN(c3nc4nc(-c5c(C)cc(C#N)cc5O)ccc4o3)C2C1` (single isomer, unassigned) [Example 72B, 4-[2-[(3aR,7aS)-6-ethyl-3,3a,4,5,7,7a-hexahydro-2H-pyrrolo[2,3-c]pyridin-1-yl]oxazolo[4,5-b]pyridin-5-yl]-3-hydroxy-5-methyl-benzonitrile or 4-[2-[(3aS,7aR)-6-Ethyl-3,3a,4,5,7,7a-hexahydro-2H-pyrrolo[2,3-c]pyridin-1-yl]oxazolo[4,5-b]pyridin-5-yl]-3-hydroxy-5-methyl-benzonitrile], the IC50 amounted to 310 nM.

`CCN1CCC[C@@H](Nc2nc3nc(-c4ccc(C(F)(F)F)cc4O)c(F)cc3[nH]2)C1` [Example 133, 2-[2-[[(3R)-1-Ethyl-3-piperidyl]amino]-6-fluoro-1H-imidazo[4,5-b]pyridin-5-yl]-5-(trifluoromethyl)phenol] returned an IC50 of 80.3 nM.

`CCN1CCC[C@@H](Nc2nc3nc(-c4c(C)cc(OC(F)F)cc4O)ccc3o2)C1` [Example 130, 5-(Difluoromethoxy)-2-[2-[[(3R)-1-ethyl-3-piperidyl]amino]oxazolo[4,5-b]pyridin-5-yl]-3-methyl-phenol;2,2,2-trifluoroacetic acid] showed an IC50 of 1.9 nM.

In the case of `CCN1CCC[C@@H](Nc2nc3nc(-c4c(C)cc(C(F)(F)F)cc4O)cc(NC)c3o2)C1` [Example 103, 2-[2-[[(3R)-1-Ethyl-3-piperidyl]amino]-7-(methylamino)oxazolo[4,5-b]pyridin-5-yl]-3-methyl-5-(trifluoromethyl)phenol], the IC50 turned out to be 4.6 nM.

Turning to `CCN1CCC[C@@H](Nc2nc3nc(-c4c(C)cc(C#N)cc4O)cnc3o2)C1` [Example 109, 4-[2-[[(3R)-1-Ethyl-3-piperidyl]amino]oxazolo[4,5-b]pyrazin-5-yl]-3-hydroxy-5-methyl-benzonitrile;2,2,2-trifluoroacetic acid], the IC50 came out at 1.4 nM. In turn, `CCN1CCC[C@@H](Nc2nc3nc(-c4c(C)cc(C(F)(F)F)cc4O)cc(OC)c3o2)C1` [Example 104, 2-[2-[[(3R)-1-Ethyl-3-piperidyl]amino]-7-methoxy-oxazolo[4,5-b]pyridin-5-yl]-3-methyl-5-(trifluoromethyl)phenol] showed a half-maximal inhibitory concentration (IC50) of 1.9 nM. `CCN1CCC[C@@H](Nc2nc3nc(-c4c(C)cc5c(c4O)CCO5)ccc3o2)C1` [Example 48, 5-[2-[[(3R)-1-Ethyl-3-piperidyl]amino]oxazolo[4,5-b]pyridin-5-yl]-6-methyl-2,3-dihydrobenzofuran-4-ol]: the IC50 was 1.2 nM. In turn, `CCN1CCC[C@@H](Nc2nc3nc(-c4ccc(Cl)cc4O)c(Cl)cc3o2)C1` [Example 127, 5-Chloro-2-[6-Chloro-2-[[(3R)-1-ethyl-3-piperidyl]amino]oxazolo[4,5-b]pyridin-5-yl]phenol] registered an IC50 of 20.6 nM. The value for `CCN1C[C@@H](O)C[C@@H](Nc2nc3nc(-c4c(C)cc(C)cc4O)ccc3o2)C1` [Example 70] was 3.8 nM; that for `CCN1CCC[C@@H](Nc2nc3nc(-c4c(O)cc(C#N)cc4Cl)ccc3o2)C1` [Example 107, 3-Chloro-4-[2-[[(3R)-1-ethyl-3-piperidyl]amino]oxazolo[4,5-b]pyridin-5-yl]-5-hydroxy-benzonitrile;2,2,2-trifluoroacetic acid] was 8.8 nM. The compound `Cc1cc(Cl)cc(O)c1-c1ccc2oc(N[C@@H]3CCCN(C)C3)nc2n1` [Example 44, 5-Chloro-3-methyl-2-[2-[[(3R)-1-methyl-3-piperidyl]amino]oxazolo[4,5-b]pyridin-5-yl]phenol] gave an IC50 of 0.7 nM. The value for `Cc1cc(C(F)(F)F)cc(O)c1-c1ccc2oc(N3CCNCC3)nc2n1` [Example 6, 3-Methyl-2-(2-piperazin-1-yloxazolo[4,5-b]pyridin-5-yl)-5-(trifluoromethyl)phenol formic acid salt] was 86.6 nM. As to `Cc1cc(C#N)cc(O)c1-c1ccc2oc(N[C@H]3CCCN4CCC[C@@H]34)nc2n1` (single isomer, unassigned) [Example 139A, 4-[2-[[(8S,8aS)-1,2,3,5,6,7,8,8a-Octahydroindolizin-8-yl]amino]oxazolo[4,5-b]pyridin-5-yl]-3-hydroxy-5-methyl-benzonitrile or 4-[2-[[(8R,8aR)-1,2,3,5,6,7,8,8a-octahydroindolizin-8-yl]amino]oxazolo[4,5-b]pyridin-5-yl]-3-hydroxy-5-methyl-benzonitrile], the IC50 turned out to be 3.7 nM.

`Cc1cc(C#N)cc(O)c1-c1ccc2oc(NC3CCCN4CCCC34)nc2n1` (single isomer, unassigned) [Example 139B, 4-[2-[[(8R,8aR)-1,2,3,5,6,7,8,8a-Octahydroindolizin-8-yl]amino]oxazolo[4,5-b]pyridin-5-yl]-3-hydroxy-5-methyl-benzonitrile or 4-[2-[[(8S,8aS)-1,2,3,5,6,7,8,8a-octahydroindolizin-8-yl]amino]oxazolo[4,5-b]pyridin-5-yl]-3-hydroxy-5-methyl-benzonitrile] returned an IC50 of 59.9 nM. Turning to `Cc1cc(Cl)cc(O)c1-c1cc(N2CCCC2=O)c2oc(N[C@@H]3CCCN(C)C3)nc2n1` (racemic) [Example 60, 1-[5-(4-Chloro-2-hydroxy-6-methyl-phenyl)-2-[[rac-(3R)-1-methyl-3-piperidyl]amino]oxazolo[4,5-b]pyridin-7-yl]pyrrolidin-2-one], the IC50 amounted to 17.9 nM. The value for `CCN1CCC[C@@H](Nc2nc3nc(-c4c(C)cccc4O)ccc3o2)C1` [Example 125, 2-[2-[[(3R)-1-Ethyl-3-piperidyl]amino]oxazolo[4,5-b]pyridin-5-yl]-3-methyl-phenol] was 3 nM; that for `Cc1cc(Cl)cc(O)c1-c1ccc2oc(NC3CCC4CCCN4C3)nc2n1` (stereo not shown) [Example 65, 2-[2-(1,2,3,5,6,7,8,8a-Octahydroindolizin-6-ylamino)oxazolo[4,5-b]pyridin-5-yl]-5-chloro-3-methyl-phenol] was 20.3 nM; that for `CCN1CCC[C@@H](Nc2nc3nc(-c4c(C)cc(Cl)cc4O)cnc3o2)C1` [Example 113, 5-Chloro-2-[2-[[(3R)-1-ethyl-3-piperidyl]amino]oxazolo[4,5-b]pyrazin-5-yl]-3-methyl-phenol;2,2,2-trifluoroacetic acid] was 0.5 nM. Take `Cc1cc(C#N)cc(O)c1-c1ccc2oc(N[C@@H]3CCCN(C)C3)nc2n1` [Example 26, 3-Hydroxy-5-methyl-4-[2-[[(3R)-1-methyl-3-piperidyl]amino]oxazolo[4,5-b]pyridin-5-yl]benzonitrile]: half-maximal inhibition (IC50) required 2.8 nM.

Compound `CCN1C[C@@H](O)C[C@@H](Nc2nc3nc(-c4c(C)cc(C#N)cc4O)ccc3o2)C1` [Example 28, 4-[2-[[(3R,5S)-1-Ethyl-5-hydroxy-3-piperidyl]amino]oxazolo[4,5-b]pyridin-5-yl]-3-hydroxy-5-methyl-benzonitrile;formic acid salt] registered an IC50 of 4.6 nM.

As to “3-Methyl-2-[2-[[(2S)-1-methylazetidin-2-yl]methylamino]oxazolo[4,5-b]pyridin-5-yl]-5-(trifluoromethyl)phenol or 3-methyl-2-[2-[[(2R)-1-methylazetidin-2-yl]methylamino]oxazolo[4,5-b]pyridin-5-yl]-5-(trifluoromethyl)phenol [Example 66B]”, the IC50 is 256 nM. This IC50 lies about 56-fold higher than the previous one. Compound `Cc1cc(C(F)(F)F)cc(O)c1-c1ccc2oc(N[C@@H]3C[C@H]3N(C)C)nc2n1` [Example 55, 2-[2-[[(1R,2R)-2-(Dimethylamino)cyclopropyl]amino]oxazolo[4,5-b]pyridin-5-yl]-3-methyl-5-(trifluoromethyl)phenol] had an IC50 of 17.8 nM. The value for `Cc1cc(C)c(-c2ccc3oc(N[C@@H]4CCCN(C)C4)nc3n2)c(O)c1` [Example 128, 3,5-Dimethyl-2-[2-[[(3R)-1-methyl-3-piperidyl]amino]oxazolo[4,5-b]pyridin-5-yl]phenol;2,2,2-trifluoroacetic acid] was 1.8 nM. `Cc1cc(Cl)cc(O)c1-c1ccc2oc(N(CCO)[C@@H]3CCCN(C)C3)nc2n1` [Example 98, 5-Chloro-2-[2-[2-hydroxyethyl-[(3R)-1-methyl-3-piperidyl]amino]oxazolo[4,5-b]pyridin-5-yl]-3-methyl-phenol]: the IC50 was found to be 11.1 nM.
